# Reference: patent EP4167996B1, “METAMIZOLE DERIVATIVES FOR THE PREVENTION AND TREATMENT OF PULMONARY HYPERTENSION” (Preißner, Robert, priority 2020, dated 2021)
# Test system: isoliert-perfundierte Mauslungen
# Assay: Hypoxic pulmonary vasoconstriction in the isolated perfused mouse lung (IPL)
# Parameters: species or system C57BU6J Mäuse
# Conditions: control ΔPAP ca. 4 cmH2O, P<0,005
# Procedure: Hypoxisch pulmonale Vasokonstriktion an der isoliert-perfundierten Mauslunqe (IPL)
# Für die IPL wurden 10-12 Wochen alte C57BU6J Mäuse verwendet. Zu Beginn wurden die Mäuse anästhesiert (Ketamin 100mg/kg Körpergewicht (KG); Xylazin 20mg/kg KG) und mittels zervikaler Dislokation getötet. Im Anschluss wurde eine Tracheotomie durchgeführt und die Lunge in situ positiv mit normoxischem (20% O2; 5% CO2; 75% N2) Gas ventiliert (Tidalvolumen: 100 µl; Atemzüge pro Minute: Körpergewicht x 10). Anschließend wurde der Bauchraum eröffnet, das Diaphragma durchtrennt und Heparin (100 U) in den rechten Ventrikel injiziert. Nach der Eröffnung des Thorax mittels Sternotomie wurde sowohl die Pulmonalarterie als auch der linke Ventrikel kanüliert und die Lunge mit auf 37°C temperierter, gepufferter Salzlösung nach Hanks, angereichert mit Ca^2+, Mg^2+ und 10% FBS, perfundiert. Je nach Versuchsgruppe wurde das Perfusat zusätzlich mit einer Gewichts-entsprechenden Menge an Metamizol, 4-Aminoantipyrin oder 4-Methylamioantipyrin versetzt. Sobald sich der pulmonalarterielle Druck (PAP) stabilisiert hatte, wurden die Basalwerte aufgezeichnet und anschließend die Mauslunge mit hypoxischem Gas (1% O2; 5% CO2; 94% N2) ventiliert. Veränderungen des PAP wurden mithilfe eines Drucksensors P75 (Havartus apparatus) detektiert, und geben das Ausmaß der hypoxischen Vasokonstriktion der Lunge wieder.
structure (smiles),measurement,setting,value
CNc1c(C)n(C)n(-c2ccccc2)c1=O [4-Methylaminoantipyrin],Reduktion des ΔPAP in Abhängigkeit der Konzentration,"50-200 mg/kg KG in perfusate, hypoxic gas (1% O2; 5% CO2; 94% N2), Fig. 2",Dosis-abhängigen Reduktion des ΔPAP
same,inhibition at 200 mg/kg,"Mus musculus, 200 mg/kg KG in perfusate, ventilation switched from normoxic to hypoxic gas (1% O2; 5% CO2; 94% N2), Fig. 1, read-out: Reduktion des ΔPAP nach Umschalten auf Hypoxie",70%
